Experimental data reported in patent publication US10183942B2, “JAK kinase inhibitor compounds for treatment of respiratory disease” (THERAVANCE BIOPHARMA R&D IP, LLC, priority 2015, dated 2019).

Key:
[1] = molecular target: JAK1 (Homo sapiens (Human), UniProt P23458)
[2] = test system: IL-13 induced pSTAT6 induction in lung tissue; assay: Murine model of IL-13 induced pSTAT6 induction in lung tissue; format: in vivo; details: mouse lung; for inhibition of STAT6 phosphorylation in the pharmacodynamic assay: IL-13 challenge 4 h after dose; for lung concentration smaller than that of the corresponding compound of the invention by a factor: pharmacodynamic assay, C-1 vs 1, C-2 vs 7, C-3 vs 13, C-4 vs 6
Description: 11-13 is an important cytokine underlying the pathophysiology of asthma (Kudlacz et al. Eur. J. Pharmacol, 2008, 582, 154-161). IL-13 binds to cell surface receptors activating members of the Janus family of kinases (JAK) which then phosphorylate STAT6 and subsequently activates further transcription pathways. In the described model, a dose of IL-13 was delivered locally into the lungs of mice to induce the phosphorylation of STAT6 (pSTAT6) which is then measured as the endpoint.
Adult balb/c mice from Harlan were used in the assay. On the day of study, animals were lightly anesthetized with isoflurane and administered either vehicle or test compound (0.5 mg/mL, 50 μL total volume over several breaths) via oral aspiration. Animals were placed in lateral recumbency post dose and monitored for full recovery from anesthesia before being returned to their home cage. Four hours later, animals were once again briefly anesthetized and challenged with either vehicle or IL-13 ([…] total dose delivered, 50 μL total volume) via oral aspiration before being monitored for recovery from anesthesia and returned to their home cage. One hour after vehicle or IL-13 administration, lungs were collected for both pSTAT6 detection using an anti-pSTAT6 ELISA (rabbit mAb capture/coating antibody; mouse mAb detection/report antibody: anti-pSTAT6-pY641; secondary antibody: anti-mouse IgG-HRP) and analyzed for total drug concentration as described above in Assay 4.
Selected compounds of the invention were tested in the assay. Activity in the model is evidenced by a decrease in the level of pSTAT6 present in the lungs of treated animals at 5 hours compared to the vehicle treated, IL-13 challenged control animals. The difference between the control animals which were vehicle-treated, IL-13 challenged and the control animals which were vehicle-treated, vehicle challenged dictated the 0% and 100% inhibitory effect, respectively, in any given experiment.

[3] = Pharmacokinetics in plasma and lung in mouse; format: in vivo; details: oral aspiration 0.2 mg/mL 50 uL, lung AUC / plasma AUC
Description: Plasma and lung levels of test compounds and ratios thereof were determined in the following manner. BALB/c mice from Charles River Laboratories were used in the assay. Test compounds were individually formulated in 20% propylene glycol in pH 4 citrate buffer at a concentration of 0.2 mg/mL and 50 uL of the dosing solution was introduced into the trachea of a mouse by oral aspiration. At various time points (typically 0.167, 2, 6, 24 hr) post dosing, blood samples were removed via cardiac puncture and intact lungs were excised from the mice. Blood samples were centrifuged (Eppendorf centrifuge, 5804R) for 4 minutes at approximately 12,000 rpm at 4° C. to collect plasma. Lungs were padded dry, weighed, and homogenized at a dilution of 1:3 in sterile water. Plasma and lung levels of test compound were determined by LC-MS analysis against analytical standards constructed into a standard curve in the test matrix. A lung to plasma ratio was determined as the ratio of the lung AUC in μg hr/g to the plasma AUC in […], where AUC is conventionally defined as the area under the curve of test compound concentration vs. time.

[4] = test system: interleukin-13 induced STAT6 phosphorylation in BEAS-2B human lung epithelial cells; assay: Cellular JAKI potency assay (AlphaScreen, BEAS-2B); format: cell-based; details: C-1 vs 1, C-2 vs 7, C-3 vs 13, C-4 vs 6
Description: The AlphaScreen JAKI cellular potency assay was carried out by measuring interleukin-13 (IL-13, R&D Systems) induced STAT6 phosphorylation in BEAS-2B human lung epithelial cells (ATCC). The anti-STAT6 antibody (Cell Signaling Technologies) was conjugated to AlphaScreen acceptor beads (Perkin Elmer), while the anti-pSTAT6 (pTyr641) antibody (Cell Signaling Technologies) was biotinylated using EZ-Link Sulfo-NHS-Biotin (Thermo Scientific).
BEAS-2B cells were grown at 37° C. in a 5% CO2 humidified incubator in 50% DMEM/50% F-12 medium (Life Technologies) supplemented with 10% FBS (Hyclone), 100 U/mL penicillin, 100 μg/mL streptomycin (Life Technologies), and 2 mM GlutaMAX (Life Technologies). On day 1 of the assay, cells were seeded at a 7,500 cells/well density in white poly-D-lysine-coated 384-well plates (Corning) with 25 μL medium, and were allowed to adhere overnight in the incubator. On day 2 of the assay, the medium was removed and replaced with 12 μL of assay buffer (Hank's Balanced Salt Solution/HBSS, 25 mM HEPES, and 1 mg/ml bovine serum albumin/BSA) containing dose-responses of test compounds. Compounds were serially diluted in DMSO and then diluted another 1000-fold in media to bring the final DMSO concentration to 0.1%. Cells were incubated with test compounds at 37° C. for 1 h, and followed by the addition of 12 μl of pre-warmed IL-13 (80 ng/ml in assay buffer) for stimulation. After incubating at 37° C. for 30 min, the assay buffer (containing compound and IL-13) was removed, and 10 μl of cell lysis buffer (25 mM HEPES, 0.1% SDS, 1% NP-40, 5 mM MgCl2, 1.3 mM EDTA, 1 mM EGTA, and supplement with Complete Ultra mini protease inhibitors and PhosSTOP from Roche Diagnostics). The plates were shaken at ambient temperature for 30 min before the addition of detection reagents. […] After a minimum of 2 h incubation, the assay plates were read on the EnVision plate reader.
Results were expressed as the negative logarithm of the IC50 value, pIC50.

[5] = Dynamic moisture sorption assessment; format: physicochemical
Description: Dynamic moisture sorption (DMS) measurement was performed using a VTI atmospheric microbalance, SGA-100 system (VTI Corp., Hialeah, Fla. 33016). A weighed sample was used and the humidity was lowest possible value (close to 0% RH) at the start of the analysis. The DMS analysis consisted of an initial drying step (˜0% RH) for 120 minutes, followed by two cycles of sorption and desorption with a scan rate of 5% RH/step over the humidity range of 5% RH to 90% RH. The DMS run was performed isothermally at 25° C.

JAK1, sequence (P23458 whole entry): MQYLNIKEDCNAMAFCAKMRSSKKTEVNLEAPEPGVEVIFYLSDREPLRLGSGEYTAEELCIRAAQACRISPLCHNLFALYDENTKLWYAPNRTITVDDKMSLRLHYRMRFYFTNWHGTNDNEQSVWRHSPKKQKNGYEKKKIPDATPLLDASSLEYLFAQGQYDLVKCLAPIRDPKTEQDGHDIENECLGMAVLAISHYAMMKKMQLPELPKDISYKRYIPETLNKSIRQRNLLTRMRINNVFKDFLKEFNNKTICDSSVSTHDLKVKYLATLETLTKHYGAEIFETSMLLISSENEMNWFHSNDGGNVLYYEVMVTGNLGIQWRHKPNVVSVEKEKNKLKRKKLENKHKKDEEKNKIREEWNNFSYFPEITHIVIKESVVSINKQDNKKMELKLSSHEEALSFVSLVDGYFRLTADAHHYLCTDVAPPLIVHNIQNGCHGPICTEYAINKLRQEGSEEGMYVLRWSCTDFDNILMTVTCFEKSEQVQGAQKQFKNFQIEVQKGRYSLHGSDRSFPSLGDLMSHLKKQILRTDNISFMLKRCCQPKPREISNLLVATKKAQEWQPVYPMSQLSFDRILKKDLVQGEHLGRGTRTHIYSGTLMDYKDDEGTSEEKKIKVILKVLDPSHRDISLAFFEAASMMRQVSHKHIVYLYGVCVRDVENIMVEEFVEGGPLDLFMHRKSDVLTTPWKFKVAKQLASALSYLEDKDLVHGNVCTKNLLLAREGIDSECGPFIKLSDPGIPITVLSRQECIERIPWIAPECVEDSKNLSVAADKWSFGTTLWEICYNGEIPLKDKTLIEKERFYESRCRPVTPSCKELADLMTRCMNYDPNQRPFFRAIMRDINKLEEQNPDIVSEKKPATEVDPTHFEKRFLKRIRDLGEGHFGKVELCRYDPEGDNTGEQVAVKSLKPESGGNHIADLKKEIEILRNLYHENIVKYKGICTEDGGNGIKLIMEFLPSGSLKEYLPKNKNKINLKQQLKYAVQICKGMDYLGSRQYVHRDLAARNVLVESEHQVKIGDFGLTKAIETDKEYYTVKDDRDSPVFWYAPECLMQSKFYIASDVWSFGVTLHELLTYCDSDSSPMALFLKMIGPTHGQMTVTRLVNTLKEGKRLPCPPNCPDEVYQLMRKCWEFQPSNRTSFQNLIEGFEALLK

Row | Compound | Ki [1] | Lung to Plasma ratio Assay 4 [3] | other results
1 | CCc1cc(O)c(F)cc1-c1ccc2c(-c3nc4c([nH]3)CCN(C3CN(CCO)C3)C4)n[nH]c2c1 [Example 1-1] | < 0.1 nM |  | 
2 | CCc1cc(O)c(F)cc1-c1ccc2c(-c3nc4c([nH]3)CCN(C3CN(CC)C3)C4)n[nH]c2c1 [Example 1-3] | < 0.1 nM |  | 
3 | CCc1cc(O)c(F)cc1-c1ccc2c(-c3nc4c([nH]3)CCN(C3CN(CCOC)C3)C4)n[nH]c2c1 [Example 1-6] | < 0.1 nM |  | 
4 | CCc1cc(O)c(F)cc1-c1ccc2c(-c3nc4c([nH]3)CCN(C3CN(CCC#N)C3)C4)n[nH]c2c1 [Example 1-8] | < 0.1 nM |  | 
5 | CCc1cc(O)c(F)cc1-c1ccc2c(-c3nc4c([nH]3)CCN(C3CN(C5CCS(=O)(=O)C5)C3)C4)n[nH]c2c1 (stereo not shown) [Example 1-15] |  |  | inhibition of STAT6 phosphorylation in the pharmacodynamic assay [2]: exceptions
6 | CCc1cc(O)c(F)cc1-c1ccc2c(-c3nc4c([nH]3)CCN(C3CCNCC3)C4)n[nH]c2c1 [Example 2-3] | < 0.1 nM |  | 
7 | CCc1cc(O)c(F)cc1-c1ccc2c(-c3nc4c([nH]3)CCN(CCNC3(C#N)CC3)C4)n[nH]c2c1 [Example 3-1] |  |  | inhibition of STAT6 phosphorylation in the pharmacodynamic assay [2]: exceptions
8 | CCc1cc(O)c(F)cc1-c1ccc2c(-c3nc4c([nH]3)CCN(CCN(C)CC(C)C)C4)n[nH]c2c1 [Example 3-33] |  | A (A denotes a ratio >100) | 
9 | CCc1cc(O)c(F)cc1-c1ccc2c(-c3nc4c([nH]3)CCN(CCNC3CC(OC)C3)C4)n[nH]c2c1 (stereo not shown) [Example 8, 5-Ethyl-2-fluoro-4-(3-(5-(2-((3-methoxycyclobutyl)amino)ethyl)-4,5,6,7-tetrahydro-1H-imidazo[4,5-c]pyridin-2-yl)-1H-indazol-6-yl)phenol] |  | A (A denotes a ratio >100) | 
10 | CCc1cc(O)c(F)cc1-c1ccc2c(-c3nc4c([nH]3)CCN(C3CCNC3)C4)n[nH]c2c1 (stereo not shown) [Example 9-1] | < 0.1 nM |  | 
11 | CCc1cc(O)c(F)cc1-c1ccc2c(-c3nc4c([nH]3)CCN(C[C@@H]3CCCN3C)C4)n[nH]c2c1 [Example 11, (S)-5-ethyl-2-fluoro-4-(3-(5-((1-methylpyrrolidin-2-yl)methyl)-4,5,6,7-tetrahydro-1H-imidazo[4,5-c]pyridin-2-yl)-1H-indazol-6-yl)phenol] |  | A (A denotes a ratio >100) | 
12 | CCc1cc(O)c(F)cc1-c1ccc2c(-c3nc4c([nH]3)CCN(C[C@H]3COCCN3)C4)n[nH]c2c1 [Example 13, (S)-5-Ethyl-2-fluoro-4-(3-(5-(morpholin-3-ylmethyl)-4,5,6,7-tetrahydro-1H-imidazo[4,5-c]pyridin-2-yl)-1H-indazol-6-yl)phenol] |  | A (A denotes a ratio >100) | 
13 | CCc1cc(O)c(F)cc1-c1ccc2c(-c3nc4c([nH]3)CCN(C[C@@H]3COCCN3)C4)n[nH]c2c1 [Example 14, (R)-5-Ethyl-2-fluoro-4-(3-(5-(morpholin-3-ylmethyl)-4,5,6,7-tetrahydro-1H-imidazo[4,5-c]pyridin-2-yl)-1H-indazol-6-yl)phenol] |  | A (A denotes a ratio >100) | 
14 | CCc1cc(O)c(F)cc1-c1ccc2c(-c3nc4c([nH]3)CCN(CC3CNC3)C4)n[nH]c2c1 [Example 14-7] | < 0.1 nM | A (A denotes a ratio >100) | 
15 | CCc1cc(O)c(F)cc1-c1ccc2c(-c3nc4c([nH]3)CCN(CCN3CCC[C@@H]3C)C4)n[nH]c2c1 [Example 15, (S)-5-ethyl-2-fluoro-4-(3-(5-(2-(2-methylpyrrolidin-1-yl)ethyl)-4,5,6,7-tetrahydro-1H-imidazo[4,5-c]pyridin-2-yl)-1H-indazol-6-yl)phenol] |  | A (A denotes a ratio >100) | 
16 | CCc1cc(O)c(F)cc1-c1ccc2c(-c3nc4c([nH]3)CCN(C3CC(C)C3)C4)n[nH]c2c1 (stereo not shown) [Example C-1, 5-Ethyl-2-fluoro-4-(3-(5-(3-methylcyclobutyl)-4,5,6,7-tetrahydro-1H-imidazo[4,5-c]pyridin-2-yl)-1H-indazol-6-yl)phenol] |  |  | lung concentration smaller than that of the corresponding compound of the invention by a factor [2]: 36
17 | CCc1cc(O)c(F)cc1-c1ccc2c(-c3nc4c([nH]3)CCN(CCC(C)C)C4)n[nH]c2c1 [Example C-2] |  |  | fold less potent than the corresponding compound of the invention in the BEAS-2B cellular assay [4]: 6 fold; lung concentration smaller than that of the corresponding compound of the invention by a factor [2]: 52
18 | CCc1cc(O)c(F)cc1-c1ccc2c(-c3nc4c([nH]3)CCN(CC3CCCOC3)C4)n[nH]c2c1 (stereo not shown) [Example C-3] |  |  | fold less potent than the corresponding compound of the invention in the BEAS-2B cellular assay [4]: 3 fold; lung concentration smaller than that of the corresponding compound of the invention by a factor [2]: 13
19 | CCc1cc(O)c(F)cc1-c1ccc2c(-c3nc4c([nH]3)CCN(C3CCC(C)CC3)C4)n[nH]c2c1 (stereo not shown) [Example C-4] |  |  | fold less potent than the corresponding compound of the invention in the BEAS-2B cellular assay [4]: 6 fold; lung concentration smaller than that of the corresponding compound of the invention by a factor [2]: 23
20 | CCc1cc(O)c(F)cc1-c1ccc2c(-c3nc4c([nH]3)CCN(C3CCN(C)CC3)C4)n[nH]c2c1 [crystalline hydrate, Crystalline hydrate of 5-ethyl-2-fluoro-4-(3-(5-(1-methylpiperidin-4-yl)-4,5,6,7-tetrahydro-1H-imidazo[4,5-c]pyridin-2-yl)-1H-indazol-6-yl)phenol] |  |  | weight gain in dynamic moisture sorption ([5]; 5% to 90% relative humidity, about 25° C.): less than 0.12%; hygroscopicity ([5]; two cycles of sorption and desorption): non-hygroscopic
